Data: patent US10494343B2, “Organic compound, near-infrared fluorescent constant medium containing same, and method for nano-granulating constant medium” (COLLEGE OF MEDICINE POCHON CHA UNIV. INDUSTRY—ACADEMIC …, priority 2015, dated 2019)

Test: Absorption/emission wavelength of the compounds (Table 1)
Type: physicochemical
Details: DMSO
“3-ethyl-2-((E)-2-((E)-3-((E)-2-(3-ethyl-7-methoxy-1,1-dimethyl-1H-benzo[e]indol-2(3H)-ylidene)ethylidene)-2-(4-(2-isothiocyantoethylcarbamoyl)phenylthio)-5-(1-methoxy-2-methyl-1-oxopropan-2-yl)cyclohex-1-enyl) vinyl)-7-methoxy-1,1-dimethyl-1H-benzo[e]indolium iodide [Compound J]” gave an Absorption wavelength of 856 nm and an Emission wavelength of 905 nm. For CCN1/C(=C/C=C2\CC(c3ccc(C(=O)OC)cc3)CC(/C=C/C3=[N+](CC)c4ccc5cc(OC)ccc5c4C3(C)C)=C2Cl)C(C)(C)c2c1ccc1cc(OC)ccc21.[I-] (stereo not shown) [C, 2-((E)-2-((E)-2-chloro-3-((E)-2-(3-ethyl-7-methoxy-1,1-dimethyl-1H-benzo[e]indol-2(3H)-ylidene)ethylidene)-5-(4-(methoxycarbonyl)phenyl)cyclohex-1-enyl)vinyl)-3-ethyl-7-methoxy-1,1-dimethyl-1H-benzo[e]indolium iodide], the Absorption wavelength was 843 nm and the Emission wavelength was 876 nm. In the case of CCN1/C(=C/C=C2\CC(c3ccc(C(=O)OC)cc3)CC(/C=C/C3=[N+](CC)c4ccc5cc(S(=O)(=O)O)ccc5c4C3(C)C)=C2Cl)C(C)(C)c2c1ccc1cc(S(=O)(=O)O)ccc21 (stereo not shown) [Compound A, 2-((E)-2-((E)-2-chloro-3-((E)-2-(3-ethyl-1,1-dimethyl-7-sulfo-1H-benzo[e]indo-1-2(3H)-ylidene)ethylidene)-5-(4-(methoxycarbonyl)phenyl)cyclohex-1-enyl)vinyl)-3-ethyl-1,1-dimethyl-1H-benzo[e]indolium-7-sulfonate], the Absorption wavelength is reported as 833 nm and the Emission wavelength is reported as 865 nm. Compound CCN1/C(=C/C=C2\CC(c3ccc(C(=O)OC)cc3)CC(/C=C/C3=[N+](CC)c4ccc5cc(Br)ccc5c4C3(C)C)=C2Cl)C(C)(C)c2c1ccc1cc(Br)ccc21.[I-] (stereo not shown) [Compound B, 7-bromo-2-((E)-2-((E)-3-((E)-2-(7-bromo-3-ethyl-1,1-dimethyl-1H-benzo[e]indol-2(3H)-ylidene)ethylidene)-2-chloro-5-(4-(methoxycarbonyl)phenyl)cyclohex-1-enyl)vinyl)-3-ethyl-1,1-dimethyl-1H-benzo[e]indolium iodide] has an Absorption wavelength of 831 nm and an Emission wavelength of 863 nm. CCN1/C(=C/C=C2\CC(C(C)(C)C(=O)OC)CC(/C=C/C3=[N+](CC)c4ccc5cc(S(=O)(=O)O)ccc5c4C3(C)C)=C2Cl)C(C)(C)c2c1ccc1cc(S(=O)(=O)O)ccc21 (stereo not shown) [Compound D, 2-((E)-2-((E)-2-chloro-3-((E)-2-(3-ethyl-1,1-dimethyl-7-sulfo-1H-benzo[e]indol-2(3H)-ylidene)ethylidene)-5-(1-methoxy-2-methyl-1-oxopropan-2-yl)cyclohex-1-enyl)vinyl)-3-ethyl-1,1-dimethyl-1H-benzo[e]indolium-7-sulfonate] gave an Absorption wavelength of 833 nm and an Emission wavelength of 861 nm. For CCN1/C(=C/C=C2\CC(C(C)(C)C(=O)OC)CC(/C=C/C3=[N+](CC)c4ccc5cc(Br)ccc5c4C3(C)C)=C2Cl)C(C)(C)c2c1ccc1cc(Br)ccc21.[I-] (stereo not shown) [Compound E, 7-bromo-2-((E)-2-((E)-3-((E)-2-(7-bromo-3-ethyl-1,1-dimethyl-1H-benzo[e]indol-2(3H)-ylidene)ethylidene)-2-chloro-5-(1-methoxy-2-methyl-1-oxopropan-2-yl)cyclohex-1-enyl)vinyl)-3-ethyl-1,1-dimethyl-1H-benzo[e]indolium iodide], the Absorption wavelength was 833 nm and the Emission wavelength was 865 nm. With CCN1/C(=C/C=C2\CC(C(C)(C)C(=O)OC)CC(/C=C/C3=[N+](CC)c4ccc5cc(OC)ccc5c4C3(C)C)=C2Cl)C(C)(C)c2c1ccc1cc(OC)ccc21.[I-] (stereo not shown) [Compound F, 2-((E)-2-((E)-2-chloro-3-((E)-2-(3-ethyl-7-methoxy-1,1-dimethyl-1H-benzo[e]indol-2(3H)-ylidene)ethylidene)-5-(1-methoxy-2-methyl-1-oxopropan-2-yl)cyclohex-1-enyl)vinyl)-3-ethyl-7-methoxy-1,1-dimethyl-1H-benzo[e]indolium iodide] the Absorption wavelength was 843 nm and the Emission wavelength was 881 nm. With CCN1/C(=C/C=C2\CC(C(C)(C)C(=O)OC)CC(/C=C/C3=[N+](CC)c4ccc5cc(S(=O)(=O)[O-])ccc5c4C3(C)C)=C2Sc2ccc(C(=O)O)cc2)C(C)(C)c2c1ccc1cc(S(=O)(=O)O)ccc21 (stereo not shown) [Compound G, 2-((E)-2-((E)-2-(4-carboxyphenylthio)-3-((E)-2-(3-ethyl-1,1-dimethyl-7-sulfo-1H-benzo[e]indol-2(3H)-ylidene)ethylidene)-5-(1-methoxy-2-methyl-1-oxopropan-2-yl)cyclohex-1-enyl)vinyl)-3-ethyl-1,1-dimethyl-1H-benzo[e]indolium-7-sulfonate] the Absorption wavelength was 849 nm and the Emission wavelength was 883 nm. For CCN1/C(=C/C=C2\CC(C(C)(C)C(=O)OC)CC(/C=C/C3=[N+](CC)c4ccc5cc(OC)ccc5c4C3(C)C)=C2Sc2ccc(C(=O)[O-])cc2)C(C)(C)c2c1ccc1cc(OC)ccc21 (stereo not shown) [Compound H, 4-((E)-6-((E)-2-(3-ethyl-7-methoxy-1,1-dimethyl-1H-benzo[e]indol-2(3H)-ylidene)ethylidene)-2-((E)-2-(3-ethyl-7-methoxy-1,1-dimethyl-1H-benzo[e]indolium-2-yl)vinyl)-4-(1-methoxy-2-methyl-1-oxopropan-2-yl)cyclohex-1-enylthio)benzoate], the Absorption wavelength was 857 nm and the Emission wavelength was 900 nm. For CCN1/C(=C/C=C2\CC(C(C)(C)C(=O)OC)CC(/C=C/C3=[N+](CC)c4ccc5cc(OC)ccc5c4C3(C)C)=C2Sc2ccc(C(=O)NCCN)cc2)C(C)(C)c2c1ccc1cc(OC)ccc21.[I-] (stereo not shown) [Compound I, 2-((E)-2-((E)-2-(4-(2-aminoethylcarbamoyl)phenylthio)-3-((E)-2-(3-ethyl-7-methoxy-1,1-dimethyl-1H-benzo[e]indol-2(3H)-ylidene)ethylidene)-5-(1-methoxy-2-methyl-1-oxopropan-2-yl)cyclohex-1-enyl)vinyl)-3-ethyl-7-methoxy-1,1-dimethyl-1H-benzo[e]indolium iodide], the Absorption wavelength was 857 nm and the Emission wavelength was 889 nm. Work on CCN1/C(=C/C=C2\CCCC(/C=C/C3=[N+](CC)c4ccc5cc(OC)ccc5c4C3(C)C)=C2Sc2ccc(C(=O)NCCN)cc2)C(C)(C)c2c1ccc1cc(OC)ccc21.[I-] [Compound K, 2-((E)-2-((E)-2-(4-(2-aminoethylcarbamoyl)phenylthio)-3-((E)-2-(3-ethyl-7-methoxy-1,1-dimethyl-1H-benzo[e]indol-2(3H)-ylidene)ethylidene)cyclohex-1-enyl)vinyl)-3-ethyl-7-methoxy-1,1-dimethyl-1H-benzo[e]indolium iodide] yielded an Absorption wavelength of 857 nm and an Emission wavelength of 901 nm. In the case of CCN1/C(=C/C=C2\CC(C(C)(C)C)CC(/C=C/C3=[N+](CC)c4ccc5cc(OC)ccc5c4C3(C)C)=C2Sc2ccc(C(=O)NCCN)cc2)C(C)(C)c2c1ccc1cc(OC)ccc21.[I-] (stereo not shown) [Compound L, 2-((E)-2-((E)-2-(4-(2-aminoethylcarbamoyl)phenylthio)-5-tert-butyl-3-((E)-2-(3-ethyl-7-methoxy-1,1-dimethyl-1H-benzo[e]indol-2(3H)-ylidene)ethylidene)cyclohex-1-enyl)vinyl)-3-ethyl-7-methoxy-1,1-dimethyl-1H-benzo[e]indolium iodide], the Absorption wavelength is reported as 857 nm and the Emission wavelength is reported as 896 nm.

Test: Test Example 1: optical properties of contrast medium according to Preparation Example 2
Type: physicochemical
Design: unit not given here
Details: conventional contrast medium, solvent not stated
Description: Contrast media were prepared by dissolving compound H per se according to Example 8 in various organic solvents without manufacturing core-shell nanoparticles.
Test Example 1—Evaluation on Optical Properties of Contrast Medium According to Preparation Example 2
The absorption intensity, absorption wavelength, emission wavelength, and quantum yield (ϕf) of the contrast media prepared in Preparation Example 2 are shown in the Table 2.
For CC1(C)C(/C=C/C=C/C=C/C=C2\N(CCCCS(=O)(=O)O)c3ccc4ccccc4c3C2(C)C)=[N+](CCCCS(=O)(=O)[O-])c2ccc3ccccc3c21 [indocyanine green], the “quantum efficiency (χf)” value was 2.58.
